Measured values published in article PMC5023777 (British Journal of Cancer, 2016).

Tests used:
HCT116 cells [1] = assay: Cell cycle phase analysis by flow cytometry, HCT116; conditions: GI50 concentration (100 μM for 6 and 3), 24 h, asynchronous cultures
mTOR = mTOR (Homo sapiens, UniProt P42345); assay: mTOR kinase TR-FRET assay; assay type: biochemical
HCT116 cells [2] = assay: SRB cell growth inhibition assay, HCT116; assay type: cell-based, human; conditions: HCT116 and HT29 cells, SRB GI50
CDK2 = CDK2 (Homo sapiens, UniProt P24941); assay: CDK2 purified kinase assay; assay type: biochemical
HCT116 cells [3] = assay: Clonogenic survival assay, HCT116; assay type: cell-based, human; conditions: 10 μM, 72 h exposure

mTOR, sequence (P42345 1360-2549 limits assumed): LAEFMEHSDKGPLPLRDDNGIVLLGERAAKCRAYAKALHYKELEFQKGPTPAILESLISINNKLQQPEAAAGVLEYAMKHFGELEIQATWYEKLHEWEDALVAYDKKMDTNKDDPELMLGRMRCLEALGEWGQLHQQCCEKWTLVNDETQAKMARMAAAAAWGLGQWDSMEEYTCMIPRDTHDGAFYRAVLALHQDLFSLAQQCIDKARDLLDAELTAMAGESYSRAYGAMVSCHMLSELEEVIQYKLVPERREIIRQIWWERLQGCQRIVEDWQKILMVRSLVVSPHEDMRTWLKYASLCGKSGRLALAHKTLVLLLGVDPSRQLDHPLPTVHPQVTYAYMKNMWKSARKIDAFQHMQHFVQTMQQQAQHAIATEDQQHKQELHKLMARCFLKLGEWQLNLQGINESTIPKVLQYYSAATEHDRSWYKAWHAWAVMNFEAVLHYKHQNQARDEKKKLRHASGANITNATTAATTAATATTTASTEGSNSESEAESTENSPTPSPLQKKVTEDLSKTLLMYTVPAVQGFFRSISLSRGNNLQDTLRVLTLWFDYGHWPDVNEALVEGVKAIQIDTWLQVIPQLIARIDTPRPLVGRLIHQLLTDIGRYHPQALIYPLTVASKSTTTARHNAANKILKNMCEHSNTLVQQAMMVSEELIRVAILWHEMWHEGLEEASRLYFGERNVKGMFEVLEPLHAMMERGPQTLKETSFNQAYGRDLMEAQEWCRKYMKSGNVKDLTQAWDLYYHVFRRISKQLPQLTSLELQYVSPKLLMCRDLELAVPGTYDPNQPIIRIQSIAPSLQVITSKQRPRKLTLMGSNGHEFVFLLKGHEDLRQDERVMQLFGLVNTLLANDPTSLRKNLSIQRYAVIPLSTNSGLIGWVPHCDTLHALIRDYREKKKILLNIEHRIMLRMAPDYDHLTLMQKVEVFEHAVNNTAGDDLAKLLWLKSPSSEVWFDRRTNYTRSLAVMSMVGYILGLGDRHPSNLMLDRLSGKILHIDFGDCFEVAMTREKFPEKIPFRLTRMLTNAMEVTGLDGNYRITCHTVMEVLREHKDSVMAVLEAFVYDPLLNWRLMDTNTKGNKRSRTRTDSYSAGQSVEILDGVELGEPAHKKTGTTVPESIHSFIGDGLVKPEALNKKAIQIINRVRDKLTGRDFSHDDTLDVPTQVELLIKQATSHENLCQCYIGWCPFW

Row | IC50 (mTOR) [µM] | SMILES | effect on cell cycle phase distribution, HCT116 (HCT116 cells [1]) | fold less potent at inhibiting cell growth than 1, 2 and 5 (HCT116 cells [2]) | further results
1 | 19 | Nc1nc(N)c(N=O)c(OCC2CCCCC2)n1 [Compound 2] | greater G1 phase accumulation than rapamycin or dactolisib | – | –
2 | 4.9 | Nc1nc(N)c(N=O)c(OCc2ccc(Cl)cc2)n1 [Compound 8, 6-(4-Chlorobenzyloxy)-5-nitrosopyrimidine-2,4-diamine] | – | 5–10 fold | inhibition of CDK2 (in words) (CDK2): did not inhibit CDK2
3 | – | Cn1c(=O)n(-c2ccc(C(C)(C)C#N)cc2)c2c3cc(-c4cnc5ccccc5c4)ccc3ncc21 [Dactolisib (NVP-BEZ235)] | caused a G1 arrest | – | –
4 | – | NS(=O)(=O)c1ccc(Nc2nc(OCC3CCCCC3)c3nc[nH]c3n2)cc1 [NU6102, 4-[[6-(cyclohexylmethoxy)-9H-purin-2-yl]amino]-benzenesulfonamide] | – | – | cytotoxicity (clonogenic), HCT116 (HCT116 cells [3]): cytotoxic as a single agent
5 | – | CO[C@H]1C[C@@H]2CC[C@@H](C)[C@@](O)(O2)C(=O)C(=O)N2CCCC[C@H]2C(=O)O[C@H]([C@H](C)C[C@@H]2CC[C@@H](O)[C@H](OC)C2)CC(=O)[C@H](C)/C=C(\C)[C@@H](O)[C@@H](OC)C(=O)[C@H](C)C[C@H](C)/C=C/C=C/C=C/1C [Rapamycin] | caused a G1 arrest | – | –

Row | SMILES | IC50 (mTOR) [µM] | effect on cell cycle phase distribution, HCT116 (HCT116 cells [1]) | fold less potent at inhibiting cell growth than 1, 2 and 5 (HCT116 cells [2]) | further results
6 | CCC(C)Oc1nc(N)nc(N)c1C#N (stereo not shown) [Compound 7, 2,6-Diamino-4-sec-butoxypyrimidine-5-carbonitrile] | > 20 | – | 5–10 fold | –
